Measurements: US12129246B1, “Hydroquinazoline derivatives for the treatment of a disease or disorder” (Novartis AG, priority 2023, dated 2024)
Where two headings read alike, the source gives them in different places.

Columns and labels:
monkey NPR1 = monkey NPR1 (Macaca fascicularis, UniProt A0A7N9DBT9); assay: Cellular cGMP production assay, monkey NPR1 expressing CHO-K1 cells (CisBio HTRF); type: cell-based; settings: for Monkey NPR1 Amax (% of ANP): maximum cGMP production as percentage of the maximum cGMP produced with ANP
Outline: (§1)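 Cells receive IBMX (1 mM) assay buffer plus test compound over twelve threefold dilutions starting at 30 μM, and cGMP accumulates for 30 min at 37 °C. Lysates are then incubated one hour at room temperature with d2-labelled cGMP and cryptate-labelled antibody before time-resolved fluorescence reading.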

human NPR1 = biological target: T1, human NPR1 (Homo sapiens, UniProt P16066); assay: Cellular cGMP production assay, human NPR1 expressing CHO-K1 cells (CisBio HTRF); type: cell-based; settings: for AC50: cGMP production, 30 min at 37° C., 12-point dose-response from 30 μM; for Human NPR1 Amax (% of ANP): maximum cGMP production as percentage of the maximum cGMP produced with ANP
T1 construct: host or cells: CHO-K1
T1 sequence (P16066 33-1061): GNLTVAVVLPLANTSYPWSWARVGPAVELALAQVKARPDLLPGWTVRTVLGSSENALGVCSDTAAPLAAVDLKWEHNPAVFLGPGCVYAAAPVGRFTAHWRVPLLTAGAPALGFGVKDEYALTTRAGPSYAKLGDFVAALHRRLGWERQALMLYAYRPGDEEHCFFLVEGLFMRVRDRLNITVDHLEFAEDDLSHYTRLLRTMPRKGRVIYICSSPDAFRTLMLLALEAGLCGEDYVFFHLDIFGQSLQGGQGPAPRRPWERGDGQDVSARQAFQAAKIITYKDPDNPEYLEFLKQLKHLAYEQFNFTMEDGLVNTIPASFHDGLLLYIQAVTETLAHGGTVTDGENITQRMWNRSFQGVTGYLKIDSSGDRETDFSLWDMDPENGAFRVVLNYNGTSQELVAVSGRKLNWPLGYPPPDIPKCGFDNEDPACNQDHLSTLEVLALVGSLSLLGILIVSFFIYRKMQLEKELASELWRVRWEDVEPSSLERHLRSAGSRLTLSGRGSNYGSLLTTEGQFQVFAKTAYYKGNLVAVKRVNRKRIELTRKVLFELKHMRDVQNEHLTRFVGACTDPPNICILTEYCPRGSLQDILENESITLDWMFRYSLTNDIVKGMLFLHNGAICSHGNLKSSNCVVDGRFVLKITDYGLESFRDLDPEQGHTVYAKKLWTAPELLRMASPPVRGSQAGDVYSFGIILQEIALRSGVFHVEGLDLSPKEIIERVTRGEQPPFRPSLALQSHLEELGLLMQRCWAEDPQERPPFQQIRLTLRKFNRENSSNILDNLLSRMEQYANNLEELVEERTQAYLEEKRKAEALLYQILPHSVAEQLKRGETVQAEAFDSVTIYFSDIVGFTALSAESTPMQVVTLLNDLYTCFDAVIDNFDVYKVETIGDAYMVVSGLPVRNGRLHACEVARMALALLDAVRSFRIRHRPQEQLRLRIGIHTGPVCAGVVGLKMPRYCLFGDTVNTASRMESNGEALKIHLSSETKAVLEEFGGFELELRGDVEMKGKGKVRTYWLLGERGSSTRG
Outline: as §1

[1] = cGMP production, monkey NPR1 CHO-K1 cells, 30 min at 37° C., 12-point dose-response from 30 μM, read-out: Monkey NPR1 AC50

Sequence of monkey NPR1 (A0A7N9DBT9 entry or part of it): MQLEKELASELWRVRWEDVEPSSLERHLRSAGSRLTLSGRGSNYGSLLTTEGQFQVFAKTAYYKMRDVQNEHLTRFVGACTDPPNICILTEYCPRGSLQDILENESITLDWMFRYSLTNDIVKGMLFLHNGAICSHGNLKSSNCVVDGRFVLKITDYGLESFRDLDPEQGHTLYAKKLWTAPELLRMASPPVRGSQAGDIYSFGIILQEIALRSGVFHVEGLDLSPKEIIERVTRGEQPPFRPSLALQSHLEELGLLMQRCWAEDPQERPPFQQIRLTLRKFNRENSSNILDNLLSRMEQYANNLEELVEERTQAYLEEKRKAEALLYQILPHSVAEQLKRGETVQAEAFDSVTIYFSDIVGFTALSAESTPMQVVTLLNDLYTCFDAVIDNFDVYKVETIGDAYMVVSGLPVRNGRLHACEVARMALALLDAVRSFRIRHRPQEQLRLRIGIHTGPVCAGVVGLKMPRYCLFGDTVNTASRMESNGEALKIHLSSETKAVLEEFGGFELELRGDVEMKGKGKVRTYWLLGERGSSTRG

SMILES: CC[C@@H](N(C)c1nc2c(c(N[C@@H](CN3C4CCCC3CC4)c3cnc(C)s3)n1)C[C@H](c1cccc(F)c1)CC2)C12CC(C(=O)O)(C1)C2 [Compound 77, 3-((1R)-1-(((6R)-4-(((1S)-2-(8-azabicyclo[3.2.1]octan-8-yl)-1-(2-methylthiazol-5-yl)ethyl)amino)-6-(3-fluorophenyl)-5,6,7,8-tetrahydroquinazolin-2-yl)(methyl)amino)propyl)bicyclo[1.1.1]pentane-1-carboxylic acid]
- AC50 (monkey NPR1): 134 nM
- Monkey NPR1 Amax (% of ANP) (monkey NPR1; monkey NPR1 CHO-K1 cells): 96.715 % of ANP
- AC50 (human NPR1): 249 nM
- Human NPR1 Amax (% of ANP) (human NPR1): 95.666 % of ANP

SMILES: CC[C@H]([C@H]1CC[C@H](C(=O)O)CC1)N(C)c1nc2c(c(N[C@@H](CN3CCC4CC4C3)c3cnn(C)c3)n1)C[C@H](c1ccccc1)CC2 (stereo partly drawn) [Compound 78, (1R,4r)-4-((1R)-1-(((6R)-4-(((1R)-2-(3-azabicyclo[4.1.0]heptan-3-yl)-1-(1-methyl-1H-pyrazol-4-yl)ethyl)amino)-6-phenyl-5,6,7,8-tetrahydroquinazolin-2-yl)(methyl)amino)propyl)cyclohexane-1-carboxylic acid]
- AC50 (monkey NPR1; [1]): 212 nM
- Monkey NPR1 Amax (% of ANP) (monkey NPR1; monkey NPR1 CHO-K1 cells): 102.158 % of ANP
- AC50 (human NPR1): 254 nM
- Human NPR1 Amax (% of ANP) (human NPR1): 99.406 % of ANP

SMILES: CC[C@H]([C@H]1CC[C@H](C(=O)O)CC1)N(C)c1nc2c(c(N[C@@H](CN3C4CCCC3CC(O)C4)c3cnn(CC)c3)n1)C[C@H](c1cccc(F)c1)CC2 (stereo partly drawn) [Compound 79, (1R,4r)-4-((1R)-1-(((6R)-4-(((1R)-1-(1-ethyl-1H-pyrazol-4-yl)-2-((1R,5S)-3-hydroxy-9-azabicyclo[3.3.1]nonan-9-yl)ethyl)amino)-6-(3-fluorophenyl)-5,6,7,8-tetrahydroquinazolin-2-yl)(methyl)amino)propyl)cyclohexane-1-carboxylic acid]
- AC50 (monkey NPR1): 327 nM
- Monkey NPR1 Amax (% of ANP) (monkey NPR1; monkey NPR1 CHO-K1 cells): 104.610 % of ANP
- AC50 (human NPR1): 257 nM
- Human NPR1 Amax (% of ANP) (human NPR1): 101.351 % of ANP

SMILES: CC[C@H]([C@H]1CC[C@H](C(=O)O)CC1)N(C)c1nc2c(c(N[C@@H](CN3C4CCCC3CC4)c3cnn(C)c3)n1)CN(c1ccc(F)cc1)CC2 [Compound 80, (1R,4r)-4-((1R)-1-((4-(((1R)-2-(8-azabicyclo[3.2.1]octan-8-yl)-1-(1-methyl-1H-pyrazol-4-yl)ethyl)amino)-6-(4-fluorophenyl)-5,6,7,8-tetrahydropyrido[4,3-d]pyrimidin-2-yl)(methyl)amino)propyl)cyclohexane-1-carboxylic acid]
- AC50 (monkey NPR1): 137 nM
- Monkey NPR1 Amax (% of ANP) (monkey NPR1; monkey NPR1 CHO-K1 cells): 102.546 % of ANP
- AC50 (human NPR1): 267 nM
- Human NPR1 Amax (% of ANP) (human NPR1): 94.876 % of ANP

SMILES: CC[C@H]([C@H]1CC[C@H](C(=O)O)CC1)N(C)c1nc2c(c(N[C@@H](CN3C4CCCC3CC4)c3cnc(C)s3)n1)C[C@H](c1cccc(F)c1)CC2 [Compound 81, (1R,4r)-4-((1R)-1-(((6R)-4-(((1S)-2-(8-azabicyclo[3.2.1]octan-8-yl)-1-(2-methylthiazol-5-yl)ethyl)amino)-6-(3-fluorophenyl)-5,6,7,8-tetrahydroquinazolin-2-yl)(methyl)amino)propyl)cyclohexane-1-carboxylic acid]
- AC50 (monkey NPR1): 175 nM
- Monkey NPR1 Amax (% of ANP) (monkey NPR1; monkey NPR1 CHO-K1 cells): 100.863 % of ANP
- AC50 (human NPR1): 271 nM
- Human NPR1 Amax (% of ANP) (human NPR1): 101.636 % of ANP

SMILES: CC[C@H]([C@H]1CC[C@](F)(C(=O)O)CC1)N(C)c1nc2c(c(N[C@H](CN3CCC[C@H](C)C3)c3cnn(C)c3)n1)C[C@H](c1ccccc1)CC2 [Compound 82, (1S,4s)-1-fluoro-4-((R)-1-(methyl((R)-4-(((S)-1-(1-methyl-1H-pyrazol-4-yl)-2-((S)-3-methylpiperidin-1-yl)ethyl)amino)-6-phenyl-5,6,7,8-tetrahydroquinazolin-2-yl)amino)propyl)cyclohexane-1-carboxylic acid]
- AC50 (monkey NPR1; [1]): 278 nM
- Monkey NPR1 Amax (% of ANP) (monkey NPR1; monkey NPR1 CHO-K1 cells): 106.556 % of ANP
- AC50 (human NPR1): 272 nM
- Human NPR1 Amax (% of ANP) (human NPR1): 96.493 % of ANP
